Assay type in all cases: functional
In assay [1] the test system is Aspergillus niger. Briefly: Antifungal activity against Aspergillus niger MTCC 2546 assessed as growth inhibition after 24 hr by tube dilution method. The following applies: MTCC 2546, 24 h.
The subject of assay [2] is Penicillium chrysogenum. Briefly: Antifungal activity against Penicillium chrysogenum MTCC 161 assessed as growth inhibition after 24 hr by tube dilution method. To be noted: MTCC 161, 24 h.
The subject of assay [3] is Penicillium chrysogenum. Put plainly: Antifungal activity against Penicillium chrysogenum MTCC 161 assessed as growth inhibition at 10 ug/mL after 48 hr by agar diffusion method. To be noted: MTCC 161, 48 h, read-out: DIZ.
In assay [4] the test system is Aspergillus niger. Put plainly: Antifungal activity against Aspergillus niger MTCC 2546 assessed as growth inhibition at 10 ug/mL after 48 hr by agar diffusion method. The following applies: MTCC 2546, 48 h, read-out: DIZ.
Assay [5] relates to Micrococcus luteus. Put plainly: Antibacterial activity against Micrococcus luteus MTCC 1538 assessed as growth inhibition after 24 hr by tube dilution method. The following applies: MTCC 1538, 24 h.
The test system of assay [6] is Pseudomonas aeruginosa. Briefly: Antibacterial activity against Pseudomonas aeruginosa MTCC 424 assessed as growth inhibition after 24 hr by tube dilution method. The following applies: MTCC 424, 24 h.
The test system of assay [7] is Pseudomonas fluorescens. Put plainly: Antibacterial activity against Pseudomonas fluorescens MTCC 2421 assessed as growth inhibition after 24 hr by tube dilution method. The following applies: MTCC 2421, 24 h.
Assay [8] deals with Bacillus pumilus. Put plainly: Antibacterial activity against Bacillus pumilus MTCC 1456 assessed as growth inhibition after 24 hr by tube dilution method. To be noted: MTCC 1456, 24 h.
The subject of assay [9] is Staphylococcus aureus. Briefly: Antibacterial activity against Staphylococcus aureus MTCC 1430 assessed as growth inhibition after 24 hr by tube dilution method. The following applies: MTCC 1430, 24 h.
For assay [10], the system named is Bacillus subtilis. Put plainly: Antibacterial activity against Bacillus subtilis MTCC 441 assessed as growth inhibition after 24 hr by tube dilution method. To be noted: MTCC 441, 24 h.
Assay [11] deals with Bacillus subtilis. Put plainly: Antibacterial activity against Bacillus subtilis MTCC 441 assessed as growth inhibition at 10 ug/mL after 48 hr by agar diffusion method. The following applies: MTCC 441, 48 h, read-out: DIZ.
For assay [12], the system named is Pseudomonas fluorescens. Put plainly: Antibacterial activity against Pseudomonas fluorescens MTCC 2421 assessed as growth inhibition at 10 ug/mL after 48 hr by agar diffusion method. The following applies: MTCC 2421, 48 h, read-out: DIZ.
The subject of assay [13] is Bacillus pumilus. Put plainly: Antibacterial activity against Bacillus pumilus MTCC 1456 assessed as growth inhibition at 10 ug/mL after 48 hr by agar diffusion method. To be noted: MTCC 1456, 48 h, read-out: DIZ.
Assay [14] has as its system Staphylococcus aureus. Put plainly: Antibacterial activity against Staphylococcus aureus MTCC 1430 assessed as growth inhibition at 10 ug/mL after 48 hr by agar diffusion method. To be noted: MTCC 1430, 48 h, read-out: DIZ.
The subject of assay [15] is Micrococcus luteus. Put plainly: Antibacterial activity against Micrococcus luteus MTCC 1538 assessed as growth inhibition at 10 ug/mL after 48 hr by agar diffusion method. To be noted: MTCC 1538, 48 h, read-out: DIZ.
The next assay relates to Escherichia coli. Briefly: Antibacterial activity against Escherichia coli MTCC 1573 assessed as growth inhibition at 10 ug/mL after 48 hr by agar diffusion method. The following applies: MTCC 1573, 48 h, read-out: DIZ.
Assay [16] has as its system Pseudomonas aeruginosa. Put plainly: Antibacterial activity against Pseudomonas aeruginosa MTCC 424 assessed as growth inhibition at 10 ug/mL after 48 hr by agar diffusion method. The following applies: MTCC 424, 48 h, read-out: DIZ.

≈ marks a conversion by molar mass, not a printed value.

Take `OC(Cn1cncn1)(Cn1cncn1)c1ccc(F)cc1F` [FLUCONAZOLE]: the MIC is 2.5 µg/mL (≈ 8.16 µM) in the assay with Aspergillus niger [1] and 1.25 µg/mL (≈ 4.08 µM) with Penicillium chrysogenum [2]. Further, the zone of inhibition at 10 µg/mL in the assay with Penicillium chrysogenum [3] turned out to be 23 mm; with Aspergillus niger [4], 22 mm.
For `CCn1cc(C(=O)O)c(=O)c2cc(F)c(N3CCNCC3)cc21` [NORFLOXACIN], the MIC in the assay with Micrococcus luteus [5] amounted to 2.5 µg/mL (≈ 7.83 µM); in the assay on Pseudomonas aeruginosa [6], 2.5 µg/mL (≈ 7.83 µM); in the assay with Pseudomonas fluorescens [7] it was 2.5 µg/mL (≈ 7.83 µM); with Bacillus pumilus [8], 1.25 µg/mL (≈ 3.91 µM); in the assay with Staphylococcus aureus [9], 5 µg/mL (≈ 15.7 µM); with Bacillus subtilis [10], 2.5 µg/mL (≈ 7.83 µM). Besides, the zone of inhibition at 10 µg/mL in the assay on Bacillus subtilis [11] worked out at 25 mm; with Pseudomonas fluorescens [12] it was 27 mm; in the assay with Bacillus pumilus [13], 30 mm; in the assay on Staphylococcus aureus [14], 22 mm; with Micrococcus luteus [15] it was 24 mm; in the assay on Escherichia coli, 25 mm. Further, in the assay with Pseudomonas aeruginosa [16], the zone of inhibition at 10 µg/mL was determined as 26 mm.
